Laboratory results: patent US20070025960A1 (priority 2003, published 2007)

Key:
Vγ2/Vδ2 T cells [1] = test system: Vγ2/Vδ2 T cells
Vγ2/Vδ2 T cells [2] = test system: Vγ2/Vδ2 T cells; remark: listed apart in the source
γ/δ T cells [3] = conditions: in vivo, iv; cited from earlier work
γ/δ T cells [4] = conditions: cited from earlier work

In the case of `NCCCC(O)(P(=O)(O)O)P(=O)(O)O` [Alendronate], the “total CD3+ T cells that produced IFNγ” value (Vγ2/Vδ2 T cells [1]) is reported as 5-10% and the “subset showing intracellular IFNγ” value (Vγ2/Vδ2 T cells [2]) is reported as “restricted to the Vγ2/Vδ2 subset”.

For `NCCC(O)(P(=O)(O)O)P(=O)(O)O` [pamidronate, Pamidronate], the “change in γ/δ T cell count after drug infusion” value (γ/δ T cells [3]) is listed as “increase in γ/δ T cell count”.

For `O=P(O)(O)C(O)(Cc1cccnc1)P(=O)(O)O` [Risedronate], the “activity for stimulating γ/δ T cells” value (γ/δ T cells [4]) is listed as “highly active”.
